The target of one experiment is T1, human kidney renin (Homo sapiens, UniProt P00797).
T1 construct: human kidney renin purified as described in Bangham; from tissue; host or cells: human kidney
T1 sequence (P00797 67-406): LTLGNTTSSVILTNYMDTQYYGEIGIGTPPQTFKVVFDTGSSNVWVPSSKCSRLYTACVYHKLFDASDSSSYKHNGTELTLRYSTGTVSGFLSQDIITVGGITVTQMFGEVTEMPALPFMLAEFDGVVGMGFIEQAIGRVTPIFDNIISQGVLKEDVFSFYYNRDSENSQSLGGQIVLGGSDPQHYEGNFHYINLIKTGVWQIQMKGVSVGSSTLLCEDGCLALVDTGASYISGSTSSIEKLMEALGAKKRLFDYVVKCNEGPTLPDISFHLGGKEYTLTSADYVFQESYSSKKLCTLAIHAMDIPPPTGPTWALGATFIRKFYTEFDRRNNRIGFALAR
The experiment in a line: Human renin inhibition. The experiment is classed as biochemical. The conditions noted are these: purified human kidney renin; read-out: KI (dissociation constant of the inhibited enzyme-inhibitor complex). The protocol: An assay was carried out in order to determine the inhibitory potency of the peptides of the present invention. The assay measured the inhibition of human kidney renin purified as described in Bangham, D. R., Robertson, I., Robinson, J. I. S., Robinson, C. J., and Tree, M., Clinical Science and Molecular Medicine, 48 (Supp. 2): 136s-159s (1975), and further purified by affinity chromatography on pepstatin-aminohexyl-Sepharase as described in Poe, M., Wu., J. K., Florance, J. R., Radkey, J. A., Bennett, C. D., and Hoagsteen, K., J. Biol. Chem. (1982, in press). The assay was also in accordance with Poe et al. cited above. Results are expressed as KI values, which refer to the dissociation constant of the inhibited enzyme-inhibitor complex. This KI value was obtained as described above. […]

A further experiment relates to hog kidney renin. In words: Hog renin inhibition. The experiment is classed as biochemical. The settings on record: pH 7.3, read-out: I50 (concentration of peptide inhibitor necessary to produce 50% inhibition of renin activity). On the procedure: An assay was carried out in order to determine the inhibitory potency of the peptides of the present invention. The assay measured the inhibition of hog kidney renin, and was in accordance with the procedure described in Rich et al., J. Med. Chem. 23:27, 1980, except that a pH of 7.3 was used. The results of the assay, illustrated in the table below, are expressed as I50 values, which refers to the concentration of peptide inhibitor necessary to produce 50% inhibition of renin activity. This I50 value is obtained typically by plotting data from four inhibitor concentrations.

Another experiment relates to nephrectomized rats. The conditions noted are these: after the injection of hog renin into nephrectomized rats; Gross et al. 1971; cited from earlier work.

Positions of bridges follow the written chain, without caps; N, C: chain ends. Residues, ends and D or L forms follow the SMILES beside them. *: point of attachment. Boc = CC(C)(C)OC(=O)*

As to `CC(C)[C@@H]1NC(=O)[C@H](Cc2ccccc2)NC(=O)[C@H](Cc2ccccc2)NC(=O)[C@@H](NC(=O)[C@H](Cc2ccccc2)NC(=O)[C@@H]2CCCN2C(=O)[C@H](Cc2c[nH]cn2)NC(=O)[C@@H]2CCCN2)CCCCNC(=O)[C@H](Cc2ccccc2)NC1=O` (H-PHPFKFFVF; lactam 5-C), the Ki (as a rule, the equilibrium dissociation constant of an inhibitor or competing ligand from its target) on human kidney renin came to 33 µM.
Turning to `CC(C)C[C@@H]1NC(=O)[C@@H](NC(=O)[C@H](Cc2ccccc2)NC(=O)[C@@H]2CCCN2C(=O)[C@H](Cc2c[nH]cn2)NC(=O)[C@@H]2CCCN2C(=O)OC(C)(C)C)CCCCNC(=O)[C@H](Cc2ccccc2)NC(=O)[C@H](C(C)C)NC(=O)[C@H](CC(C)C)NC1=O` [drawing 67] (Boc-PHPFKLLVF; lactam 5-C), the IC50 in the experiment on hog kidney renin was found to be 1000 µM.
Turning to `CC(C)C[C@@H]1NC(=O)[C@@H](NC(=O)[C@H](Cc2ccccc2)NC(=O)[C@@H]2CCCN2C(=O)[C@H](Cc2c[nH]cn2)NC(=O)[C@@H]2CCCN2C(=O)OC(C)(C)C)CCCCNC(=O)[C@H](Cc2ccccc2)NC(=O)[C@H](C(C)C)NC(=O)[C@H](CC(C)C)NC1=O` [drawing 69] (Boc-PHPFKLLVF; lactam 5-C), the Ki at human kidney renin stood at 6.4 µM.
Turning to Pepstatin, the “blood pressure in vivo” value with nephrectomized rats is “reduce blood pressure”.

Source of the values: patent US4743584A, “C-terminal amide cyclic renin inhibitors containing peptide isosteres” (Merck & Co., Inc., priority 1986, dated 1988).
